# Reference: patent publication EP1004306A2, “Estrogen agonists/antagonists” (Pfizer Products Inc., priority 1998, dated 2000)
# Key:
# [1] = test system: adult ORX rats; experiment: Male osteoporosis model: compression test of fifth lumbar vertebral body (LV5); assay type: in vivo, Sprague-Dawley male rats; conditions: for Maximal Load of LV5: ORX rats, daily p.o. 60 days, p < 0.05 vs. ORX
# Experimental: Fifty Sprague-Dawley male rats were sham-operated (n=10) or ORX (n=40) at 10 months of age. Ten rats were autopsied on day 0 as basal controls. […] There were 10 rats per each subgroup. all rats were given subcutaneous injections with 10 mg/kg of calcein (Sigma Chemical Co., St. Louis, MO) on 13 and 3 days before autopsy. • 1) Total serum cholesterol: Total serum cholesterol was determined using a high performance cholesterol colormetic assay (Boehringer Mannheim Biochemicals, Indianapolis, IN). • 2) Prostate weight: The prostate weight was determined immediately at autopsy. • 3) Femoral Bone Mineral Measurements: The right femur from each rat was removed at autopsy and scanned using dual energy x-ray absorptiometry (DEXA, QDR 1000/W, Hologic Inc., Waltham, MA) equipped with "Regional High Resolution Scan" software (Hologic Inc., Waltham, MA). The scan field size is 5.08 x 1.902 cm, resolution was 0.0254 x 0.0127 cm and scan speed is 7.25 mim/second. The femoral scan images were analyzed and bone area, bone mineral content (BMC), and bone mineral density (BMD) of whole femora (WF), distal femoral metaphyses (DFM), femoral shaft (FS) were determined according to the method described in H. Z. Ke et al., Droloxifene, a New Estrogen Antagonist/Agonist, Prevents Bone Loss in Ovariectomized Rats. ENDOCRINOLOGY 136;2435-2441, 1995. • 4) Third Lumbar Vertebral Body (LV3) Histomorphometry: The LV3 was removed at autopsy, dissected free of muscle, fixed in 70% ethanol, dehydrated in graded concentrations of ethanol, defatted in acetone, then embedded in methyl methacrylate (Eastman Organic Chemicals, Rochester, NY). […]
# • 1. […] A compression test was used to determine the mechanical properties of LV5, as described by Mosekilde et al. (Mosekilde, L., Danielsen, C. C., Gasser, J. The effect on vertebral bone mass and strength of long term treatment with antiresorptive agents, human PTH (1-38), and combination therapy, assessed in aged ovariectomized rats. Endocrinol 1994; 134:2126-2134). […] The maximal load and stiffness were calculated from the load-displacement curve.
# [2] = test system: adult ORX rats; experiment: Male osteoporosis model: total serum cholesterol; assay type: in vivo, Sprague-Dawley male rats; conditions: for decrease of total serum cholesterol: ORX rats
# Experimental: Fifty Sprague-Dawley male rats were sham-operated (n=10) or ORX (n=40) at 10 months of age. Ten rats were autopsied on day 0 as basal controls. ORX rats were treated (daily p.o.) with either vehicle (10% ethanol in water) or (-)Cis-6-phenyl-5-[4-(2-pyrrolidin-1-yl-ethoxy)phenyl]-5,6,7,8-tetrahydronaphthalen-2-ol at 1, 10, or 100 µg/kg/day for 60 days. There were 10 rats per each subgroup. all rats were given subcutaneous injections with 10 mg/kg of calcein (Sigma Chemical Co., St. Louis, MO) on 13 and 3 days before autopsy. • 1) Total serum cholesterol: Total serum cholesterol was determined using a high performance cholesterol colormetic assay (Boehringer Mannheim Biochemicals, Indianapolis, IN). • 2) Prostate weight: The prostate weight was determined immediately at autopsy. • 3) Femoral Bone Mineral Measurements: The right femur from each rat was removed at autopsy and scanned using dual energy x-ray absorptiometry (DEXA, QDR 1000/W, Hologic Inc., Waltham, MA) equipped with "Regional High Resolution Scan" software (Hologic Inc., Waltham, MA). The scan field size is 5.08 x 1.902 cm, resolution was 0.0254 x 0.0127 cm and scan speed is 7.25 mim/second. The femoral scan images were analyzed and bone area, bone mineral content (BMC), and bone mineral density (BMD) of whole femora (WF), distal femoral metaphyses (DFM), femoral shaft (FS) were determined according to the method described in H. Z. Ke et al., Droloxifene, a New Estrogen Antagonist/Agonist, Prevents Bone Loss in Ovariectomized Rats. ENDOCRINOLOGY 136;2435-2441, 1995. • 4) Third Lumbar Vertebral Body (LV3) Histomorphometry: The LV3 was removed at autopsy, dissected free of muscle, fixed in 70% ethanol, dehydrated in graded concentrations of ethanol, defatted in acetone, then embedded in methyl methacrylate (Eastman Organic Chemicals, Rochester, NY). Longitudinal sections of LV3 at 4 and 10 µm thickness were cut using Reichert-Jung Polycut S microtome. One 4 µm and one 10 µm sections from each rat will be used for cancellous bone histomorphometry. […]
# [3] = test system: adult ORX rats; experiment: Male osteoporosis model: third lumbar vertebral body (LV3) histomorphometry; assay type: in vivo, Sprague-Dawley male rats; conditions: for Activation Frequency: ORX rats, daily p.o. 60 days
# Experimental: Fifty Sprague-Dawley male rats were sham-operated (n=10) or ORX (n=40) at 10 months of age. Ten rats were autopsied on day 0 as basal controls. […] There were 10 rats per each subgroup. all rats were given subcutaneous injections with 10 mg/kg of calcein (Sigma Chemical Co., St. Louis, MO) on 13 and 3 days before autopsy. • 1) Total serum cholesterol: Total serum cholesterol was determined using a high performance cholesterol colormetic assay (Boehringer Mannheim Biochemicals, Indianapolis, IN). • 2) Prostate weight: The prostate weight was determined immediately at autopsy. • 3) Femoral Bone Mineral Measurements: The right femur from each rat was removed at autopsy and scanned using dual energy x-ray absorptiometry (DEXA, QDR 1000/W, Hologic Inc., Waltham, MA) equipped with "Regional High Resolution Scan" software (Hologic Inc., Waltham, MA). The scan field size is 5.08 x 1.902 cm, resolution was 0.0254 x 0.0127 cm and scan speed is 7.25 mim/second. The femoral scan images were analyzed and bone area, bone mineral content (BMC), and bone mineral density (BMD) of whole femora (WF), distal femoral metaphyses (DFM), femoral shaft (FS) were determined according to the method described in H. Z. Ke et al., Droloxifene, a New Estrogen Antagonist/Agonist, Prevents Bone Loss in Ovariectomized Rats. ENDOCRINOLOGY 136;2435-2441, 1995. • 4) Third Lumbar Vertebral Body (LV3) Histomorphometry: The LV3 was removed at autopsy, dissected free of muscle, fixed in 70% ethanol, dehydrated in graded concentrations of ethanol, defatted in acetone, then embedded in methyl methacrylate (Eastman Organic Chemicals, Rochester, NY). Longitudinal sections of LV3 at 4 and 10 µm thickness were cut using Reichert-Jung Polycut S microtome. One 4 µm and one 10 µm sections from each rat will be used for cancellous bone histomorphometry. The 4 µm sections were stained with modified Masson's Trichrome stain while the 10 µm sections remained unstained.
# A Bioquant OS/2 histomorphometry system (R&M Biometrics, Inc., Nashville, TN) was used for the static and dynamic histomorphometric measurements of the secondary spongiosa of the proximal tibial metaphyses between 1.2 and 3.6 mm distal to the growth plate-epiphyseal junction. The first 1.2 mm of the tibial metaphyseal region need to be omitted in order to restrict measurements to the secondary spongiosa. The 4 µm sections will be used to determine indices related to bone volume, bone structure, and bone resorption, while the 10 µm sections will be used to determine indices related to bone formation and bone turnover.
# • 1. Total metaphyseal area (TV, mm^2): metaphyseal area between 1.2 and 3.6 mm distal to the growth plate-epiphyseal junction. • 2. Trabecular bone area (BV, mm^2): total area of trabeculae within TV. • 3. Trabecular bone perimeter (BS, mm): the length of total perimeter of trabeculae. • 4. Trabecular bone volume (BV/TV,%): BV / TV x 100. • 5. Trabecular bone number (TBN,#/mm): 1.199 / 2 x BS / TV. • 6. Trabecular bone thickness (TBT, µm): (2000 / 1.199) x (BV / BS). • 7. Trabecular bone separation (TBS, µm): (2000 x 1.199) x (TV - BV).
# • 1. Osteoclast number (OCN, #): total number of osteoclast within total metaphyseal area. • 2. […] (OCP, mm): length of trabecular perimeter covered by osteoclast. • 3. Osteoclast number/mm (OCN/mm, #/mm): OCN / BS. • 4. Percent osteoclast perimeter (%OCP,%): OCP / BS x 100.
# • 1. Single-calcein labeled perimeter (SLS, mm): total length of trabecular perimeter labeled with one calcein label. • 2. Double-calcein labeled perimeter (DLS, mm): total length of trabecular perimeter labeled with two calcein labels. • 3. Inter-labeled width (ILW, µm): average distance between two calcein labels. • 4. Percent mineralizing perimeter (PMS,%):(SLS/2 + DLS) / BS x 100. • 5. Mineral apposition rate (MAR, µm/day): ILW / label interval. • 6. Bone formation rate/surface ref. (BFR/BS, µm^2/d/µm): (SLS/2 + DLS) x MAR / BS. • 7. […]
# [4] = test system: OVX rats; experiment: Prevention of bone loss in OVX rats (female bone mineral density, DEXA); assay type: in vivo; conditions: Rattus norvegicus, 672 h, oral, read-out: oral ED50, prevents bone loss in OVX rats
# From the text: Bone mineral density, a measure of bone mineral content, accounts for greater than 80% of a bone's strength. Loss of bone mineral density with age and/or disease reduces a bone's strength and renders it more prone to fracture. Bone mineral content is accurately measured in people and animals by dual x-ray absorptiometry (DEXA) such that changes as little as 1% can be quantified. We have utilized DEXA to evaluate changes in bone mineral density due to estrogen deficiency following ovariectomy (surgical removal of ovaries) and treatment with vehicle, estradiol (E2), keoxifen (raloxifen), or other estrogen agonists. The purpose of these studies is to evaluate the ability of the compounds of this invention to prevent estrogen deficiency bone loss as measured by DEXA. Female (S-D) rats 4-6 months of age undergo bilateral ovariectomy or sham surgery and allowed to recover from anesthesia. […] (Hologic, Inc. Waltham, MA) and bone mineral density is determined in the distal portion of the femur at a site from 1cm to 2cm from the distal end of the femur using the high resolution software supplied by Hologic. Bone mineral density is determined by dividing the bone mineral content by the bone area of the distal femur. […] Mean bone mineral density is obtained for each animal and statistical differences (p<0.05) from the vehicle-treated ovariectomy and sham-operated group were determined by t test.
# [5] = test system: adult ORX rats; experiment: Male osteoporosis model: femoral bone mineral measurements (DEXA); assay type: in vivo, Sprague-Dawley male rats; conditions: 10 or 100 µg/kg/day p.o. for 60 days; compared to ORX controls
# Experimental: (§1) Fifty Sprague-Dawley male rats were sham-operated (n=10) or ORX (n=40) at 10 months of age. Ten rats were autopsied on day 0 as basal controls. ORX rats were treated (daily p.o.) with either vehicle (10% ethanol in water) or (-)Cis-6-phenyl-5-[4-(2-pyrrolidin-1-yl-ethoxy)phenyl]-5,6,7,8-tetrahydronaphthalen-2-ol at 1, 10, or 100 µg/kg/day for 60 days. There were 10 rats per each subgroup. all rats were given subcutaneous injections with 10 mg/kg of calcein (Sigma Chemical Co., St. Louis, MO) on 13 and 3 days before autopsy. • 1) Total serum cholesterol: Total serum cholesterol was determined using a high performance cholesterol colormetic assay (Boehringer Mannheim Biochemicals, Indianapolis, IN). • 2) Prostate weight: The prostate weight was determined immediately at autopsy. • 3) Femoral Bone Mineral Measurements: The right femur from each rat was removed at autopsy and scanned using dual energy x-ray absorptiometry (DEXA, QDR 1000/W, Hologic Inc., Waltham, MA) equipped with "Regional High Resolution Scan" software (Hologic Inc., Waltham, MA). The scan field size is 5.08 x 1.902 cm, resolution was 0.0254 x 0.0127 cm and scan speed is 7.25 mim/second. […]
# [6] = Male osteoporosis model: body weight; assay type: in vivo, Sprague-Dawley male rats; conditions: 1, 10, 100 µg/kg/day p.o. for 60 days; compared to both sham and ORX controls
# Experimental: as §1
# [7] = test system: adult ORX rats; experiment: Male osteoporosis model: prostate weight and histology; assay type: in vivo, Sprague-Dawley male rats; conditions: 10 and 100 µg/kg/d p.o. for 60 days; compared to ORX controls
# Experimental: as §1
# [8] = test system: Male Sprague-Dawley rats; experiment: Effect on prostate weight; assay type: in vivo
# Experimental: Male Sprague-Dawley rats, three months of age are administered by subcutaneous injection either vehicle (10% ethanol in water), estradiol (30 µg/kg), testosterone (1 mg/kg) or a compound of formula I daily for 14 days (n=6/group). After 14 days the animals are sacrificed, the prostate is removed, and the wet prostate weight is determined. Mean weight is determined and statistical significance (p<0.05) is determined compared to the vehicle-treated group using Student's t-test.
# [9] = test system: male rats; conditions: treatment of male rats; cited from earlier work
# [10] = test system: male rats; conditions: 200 and 400 mg/kg/day; cited from earlier work
# [11] = 10 or 100 µg/kg/day p.o. for 60 days, compared to ORX controls
smiles,measurement,setting,value
"Oc1ccc2c(c1)CC[C@H](c1ccccc1)[C@@H]2c1ccc(OCCN2CCCC2)cc1 [(-)Cis-6-phenyl-5-[4-(2-pyrrolidin-1-yl-ethoxy)phenyl]-5,6,7,8-tetrahydronaphthalen-2-ol]",age-related and ORX-induced decreases in maximal load,[1]; [11],completely prevented
same,Maximal Load of LV5,[1]; 10 µg dose group,393 ± 27 N
same,Maximal Load of LV5,[1]; 100 µg dose group,393 ± 25 N
same,decrease of total serum cholesterol,[2]; 10 µg/kg/d p.o. for 60 days,46%
same,decrease of total serum cholesterol,[2]; 100 µg/kg/d p.o. for 60 days,68%
same,total serum cholesterol,"[2]; 1, 10, 100 µg/kg/day p.o. for 60 days, compared to both sham and ORX controls",dose-dependently decreased
same,age-related and ORX-induced decreases in TBV,[3]; [11],completely prevented
same,bone resorption,[3]; [11],significantly decreased
same,bone turnover,[3]; [11],significantly decreased
same,Activation Frequency,[3]; 10 µg dose group,2.06 ± 0.28 #/year
same,Activation Frequency,"[3]; 100 µg dose group, p < 0.05 vs. ORX",0.93 ± 0.08 # #/year
same,Activation Frequency,"[3]; dose group printed as 1 mg, p < 0.05 vs. Sham",2.67 ±0.34 #/year
same,ED50,[4],~1 µg/kg
same,age-related and ORX-induced decreases in DFBMD,[5],completely prevented
same,body weight,[6],dose-dependently decreased
same,prostate histology parameters,[7],no effect
same,prostate weight,[7],no effect
"C[C@]12CC[C@H]3[C@@H](CCC4=CC(=O)CC[C@@]43C)[C@@H]1CC[C@@H]2O [Testosterone, testosterone]",prostate weight compared to vehicle,[8]; testosterone 1 mg/kg s.c. daily for 14 days,no effect
"C[C@]12CC[C@@H]3c4ccc(O)cc4CC[C@H]3[C@@H]1CC[C@@H]2O [estrogen, estradiol]",prostate weight compared to vehicle,[8]; 30 µg/kg s.c. daily for 14 days,significantly reduces prostate weight
"O=C(c1ccc(OCCN2CCCCC2)cc1)c1c(-c2ccc(O)cc2)sc2cc(O)ccc12 [raloxifene, 6-hydroxy-2-(4-hydroxyphenyl)-3-[4-(2-piperidinoethoxy)benzoyl] benzo[b] thiophene]",ventral prostate,[9],regression of the ventral prostate
"CC/C(=C(\c1ccccc1)c1ccc(OCCN(C)C)cc1)c1ccccc1 [tamoxifen, 1-(4-β-dimethylaminoethoxyphenyl)-1,2-diphenyl-but-1-ene]",weights of the testes and secondary sex organs,[10],reduces the weights of the testes and secondary sex organs
